# Source: US20240174680A1, “CDK2 INHIBITORS AND METHODS OF USING THE SAME” (Cedilla Therapeutics, Inc., priority 2021, published 2024)
# pIC50: −log10 of the molar value.
# Biological target: CDK2/Cyclin E1 (Homo sapiens, UniProt P24941)
# Assay: CDK2/Cyclin E1 Caliper LabChip EZ Reader mobility shift assay
# Format: biochemical
# Parameters: purchased Eurofins 14-475
# Details: read-out: Caliper Assay (CDK2/CCNE1): IC50
# In short: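 Mobility-shift kinase assay: compound titrations preincubated 30 min with enzyme and ATP, reaction started with 5-FAM-QSPKKG-CONH2 peptide. Final 2.5 nM CDK2/Cyclin E1, 100 μM ATP, 1.5 μM peptide, HEPES pH 7.5; stopped with EDTA after 100 min. IC50 from four-parameter fit of normalized conversion ratio.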
row,pIC50,Compound
1,≥ 8.00,CNC(=O)[C@@H](NC(=O)[C@@H]1CN(C(=O)c2cnn(Cc3ccccc3)c2)CC12CN(C(=O)[C@H]1CC1(C)C)C2)[C@@H](C)OCC1CCC(C)(C)CC1 [I-372]
2,< 5.00,CCCCC1CC1C(=O)N1CC2(CN(C(=O)c3cnn(Cc4ccccc4)c3)C[C@@H]2C(=O)N[C@H](C(=O)NC)[C@@H](C)OCc2ccccc2)C1 (stereo partly shown) [I-94B]
3,< 5.00,CNC(=O)[C@@H](NC(=O)[C@H]1CN(C(=O)c2c[nH]c3ccccc23)CC12CN(C(=O)[C@H]1CC1(C)C)C2)[C@@H](C)OCc1ccccc1 [I-72B]
4,< 5.00,CNC(=O)[C@@H](NC(=O)[C@@H]1CN(C(=O)c2cnn(Cc3ccccc3)c2)CC12CN(C(=O)C1(CCOC)CC1)C2)[C@@H](C)OCc1ccccc1 [I-102A]
5,5.00 to 6.00,CNC(=O)[C@@H](NC(=O)[C@H]1CN(C(=O)c2cnn(CC3CCOCC3)c2)CC12CN(C(=O)[C@H]1CC1(C)C)C2)[C@@H](C)OCC1CCCCC1 [I-121B]
6,6.00 to 7.00,CNC(=O)[C@@H](NC(=O)[C@H]1CN(C(=O)c2cnn(Cc3ccccc3)c2)CC12CN(C(=O)[C@H]1CC1(C)C)C2)[C@@H](C)OCC1CCCC1 [I-110B]
7,5.00 to 6.00,CNC(=O)[C@@H](NC(=O)[C@@H]1CN(C(=O)c2cnn(Cc3ccccc3)c2)CC12CN(C(=O)NC(C)C)C2)[C@@H](C)OCC1CCCCC1 [I-267]
8,< 5.00,CO[C@H]1COCC[C@@H]1NC(=O)[C@H]1CN(C(=O)c2cnn(Cc3ccccc3)c2)CC12CN(C(=O)[C@H]1CC1(C)C)C2 [I-148B]
9,< 5.00,CNC(=O)[C@@H](NC(=O)[C@H]1CN(C(=O)c2sc(COC)nc2C)CC12CN(C(=O)[C@H]1CC1(C)C)C2)[C@@H](C)OCC1CCCCC1 [I-162B]
10,5.00 to 6.00,CNC(=O)[C@@H](NC(=O)[C@H]1CN(C(=O)c2cnn(Cc3ccccc3)c2)CC12CN(C(=O)CC1CC1)C2)[C@@H](C)OCC1CCCCC1 [I-56B]
11,≥ 8.00,C[C@@H](OCC1CCC(F)(F)CC1)[C@@H](COC1CCOCC1)NC(=O)[C@@H]1CN(C(=O)c2cncs2)CC12CN(C(=O)[C@H]1CC1(C)C)C2 [I-314]
12,7.00 to 8.00,CNC(=O)[C@@H](NC(=O)C1(F)CN(C(=O)c2cnn(Cc3ccccc3)c2)CC12CN(C(=O)[C@H]1CC1(C)C)C2)[C@@H](C)OCC1CCCCC1 (stereo partly shown) [I-501]
13,5.00 to 6.00,Cc1ccc(CNC(=O)[C@@H]2CN(C(=O)c3cnn(Cc4ccccc4)c3)CC23CN(C(=O)[C@H]2CC2(C)C)C3)nc1 [I-365]
14,≥ 8.00,CNC(=O)[C@@H](NC(=O)[C@@H]1CN(C(=O)c2cnn(Cc3ccccc3)c2)CC12CN(C(=O)[C@H]1CC1(C)C)C2)[C@@H](C)OCC1CCC(F)(F)CC1 [I-202]
15,< 5.00,CNC(=O)[C@@H](NC(=O)[C@H]1CN(C(=O)c2cnn(Cc3ccccc3)c2)CC12CN(C(=O)[C@H]1CC1(C)C)C2)[C@H](C)OCC1CCCCC1 [I-165]
16,≥ 8.00,C[C@@H]1C[C@H](C)CN(C(=O)[C@@H](NC(=O)C2CN(C(=O)c3cncs3)CC23CN(C(=O)[C@H]2CC2(C)C)C3)[C@@H](C)OCC2CCCCC2)C1 (stereo partly shown) [I-172]
17,6.00 to 7.00,CNC(=O)[C@@H](NC(=O)[C@H]1CN(C(=O)c2cnn(Cc3ccccc3)c2)CC12CN(C(=O)[C@H]1CC1(C)C)C2)[C@@H](C)OCC(C)(C)C [I-130B]
18,7.00 to 8.00,COC[C@H]1CCCN(C(=O)[C@@H](NC(=O)[C@@H]2CN(C(=O)c3cncs3)CC23CN(C(=O)[C@H]2CC2(C)C)C3)[C@@H](C)OC[C@H]2CC[C@H](OC)CC2)C1 [I-402]
19,< 5.00,CNC(=O)[C@@H](NC(=O)[C@H]1CN(C(=O)c2cnn(Cc3ccccc3)c2)CC12CN(C(=O)CC1(CO)CC1)C2)[C@@H](C)OCc1ccccc1 [I-92B]
20,≥ 8.00,C[C@@H](OCC1CCCCC1)[C@H](NC(=O)[C@@H]1CN(C(=O)c2cnn(Cc3ccccc3)c2)CC12CN(C(=O)[C@H]1CC1(C)C)C2)C(=O)N1CCC(c2ccncc2)CC1 [I-300]
21,7.00 to 8.00,CNC(=O)[C@@H](NC(=O)[C@@H]1CN(C(=O)c2cnn(Cc3ccccc3)c2)CC12CN(C(=O)[C@H]1CC1(C)C)C2)[C@@H](C)OCC1CCCC1 [I-110A]
22,7.00 to 8.00,"CC(O[C@H](C)[C@H](NC(=O)[C@@H]1CN(C(=O)c2cncs2)CC12CN(C(=O)[C@H]1CC1(C)C)C2)C(=O)N1CCCCC1)C1CCCCC1 (stereo partly drawn) [I-284, (8S)—N-((2S,3R)-3-(1-cyclohexylethoxy)-1-oxo-1-(piperidin-1-yl)butan-2-yl)-2-((S)-2,2-dimethylcyclopropane-1-carbonyl)-6-(thiazole-5-carbonyl)-2,6-diazaspiro[3.4]octane-8-carboxamide]"
23,< 5.00,CCCC(=O)N1CC2(C1)CN(C(=O)c1cnn(Cc3ccccc3)c1)C[C@@H]2C(=O)N[C@H](C(=O)NC)[C@@H](C)OCc1ccccc1 [I-60B]
24,5.00 to 6.00,CC1(C)C[C@@H]1C(=O)N1CC2(CN(C(=O)c3cnn(Cc4ccccc4)c3)C[C@@H]2C(=O)Nc2cccc(Cc3ccccc3)c2)C1 [I-75B]
25,6.00 to 7.00,CNC(=O)[C@@H](NC(=O)[C@@H]1CN(C(=O)c2cnn(Cc3ccccc3)c2)CC12CN(C(=O)[C@H]1CC1(C)C)C2)[C@@H](C)SCc1ccccc1 [I-368]
26,< 5.00,CNC(=O)[C@@H](NC(=O)[C@H]1CN(C(=O)c2cnn(CC3CCN(C)CC3)c2)CC12CN(C(=O)[C@H]1CC1(C)C)C2)[C@@H](C)OCc1ccccc1 [I-23B]

row,pIC50,Compound
1,≥ 8.00,C[C@@H](OCC1CCC(F)(F)CC1)[C@H](NC(=O)[C@@H]1CN(C(=O)c2cncs2)CC12CN(C(=O)[C@H]1CC1(C)C)C2)C(C)(C)O [I-313]
2,7.00 to 8.00,CNC(=O)[C@@H](NC(=O)[C@@H]1CN(C(=O)c2sc(Cl)nc2Cl)CC12CN(C(=O)[C@H]1CC1(C)C)C2)[C@@H](C)OCC1CCCCC1 [I-232A]
3,5.00 to 6.00,CNC(=O)[C@@H](NC(=O)[C@@H]1CN(C(=O)c2cnn(CC3CCN(C)CC3)c2)CC12CN(C(=O)[C@H]1CC1(C)C)C2)[C@@H](C)OCc1ccccc1 [I-23A]
4,5.00 to 6.00,C[C@@H](OCC1CCCCC1)[C@H](NC(=O)[C@H]1CN(C(=O)c2cnn(Cc3ccccc3)c2)CC12CN(C(=O)[C@H]1CC1(C)C)C2)C(=O)N1CC(C)(C)C1 [I-153B]
5,6.00 to 7.00,CNC(=O)[C@H](CCCc1ccccc1)NC(=O)[C@@H]1CN(C(=O)c2cnn(Cc3ccccc3)c2)CC12CN(C(=O)[C@H]1CC1(C)C)C2 [I-101A]
6,5.00 to 6.00,CNC(=O)[C@@H](NC(=O)[C@H]1CN(C(=O)c2cnn(Cc3ccccc3)c2)CC12CN(C(=O)[C@H]1CC1(C)C)C2)[C@@H](C)OCC1CCOCC1 [I-119B]
7,6.00 to 7.00,CNC(=O)[C@@H](NC(=O)[C@H]1CN(C(=O)c2cnn(Cc3ccccc3)c2)CC12CN(C(=O)[C@H]1CC1(C)C)C2)[C@@H](C)OCC1CCCCCC1 [I-166B]
8,< 5.00,CNC(=O)[C@@H](NC(=O)[C@H]1CN(C(=O)c2cnn(Cc3ccccc3)c2)CC12CN(C(=O)C(C)(C)C#N)C2)[C@@H](C)OCc1ccccc1 [I-76B]
9,< 5.00,CC1(C)C[C@@H]1C(=O)N1CC2(CN(C(=O)c3cnn(Cc4ccccc4)c3)C[C@H]2C(=O)NCc2nnc[nH]2)C1 [I-191A]
10,< 5.00,CNC(=O)[C@@H](NC(=O)[C@H]1CN(C(=O)c2cnco2)CC12CN(C(=O)[C@H]1CC1(C)C)C2)[C@@H](C)OCc1ccccc1 [I-39B]
11,6.00 to 7.00,COC[C@H]1CCCN(C(=O)[C@@H](NC(=O)[C@@H]2CN(C(=O)c3cncs3)CC23CN(C(=O)[C@H]2CC2(C)C)C3)[C@@H](C)OC[C@H]2CC[C@H](NC(C)=O)CC2)C1 [I-434]
12,< 5.00,CNC(=O)[C@@H](NC(=O)[C@H]1CN(C(=O)c2cnn(CC3CCN(C(C)=O)CC3)c2)CC12CN(C(=O)[C@H]1CC1(C)C)C2)[C@@H](C)OCc1ccccc1 [I-17B]
13,< 5.00,CNC(=O)[C@@H](NC(=O)[C@H]1CN(C(=O)c2cnn(Cc3ccccc3)c2)CC12CN(C(=O)C1(CCF)CC1)C2)[C@@H](C)OCc1ccccc1 [I-117B]
14,5.00 to 6.00,CC1(C)C[C@@H]1C(=O)N1CC2(CN(C(=O)c3cnn(Cc4ccccc4)c3)C[C@H]2C(=O)N[C@@H]2CCN(c3ccccc3)C2)C1 [I-207]
15,7.00 to 8.00,C[C@@H](OCC1CCCCC1)[C@@H](CO)NC(=O)[C@@H]1CN(C(=O)c2cncs2)CC12CN(C(=O)[C@H]1CC1(C)C)C2 [I-307]
16,< 5.00,CNC(=O)[C@@H](NC(=O)[C@H]1CN(C(=O)c2cnn(Cc3ccccc3)c2)CC12CN(C(=O)CC1CCC1)C2)[C@@H](C)OCc1ccccc1 [I-27B]
17,< 5.00,CNC(=O)[C@@H](NC(=O)[C@H]1CN(Cc2ccncc2)CC12CN(C(=O)[C@H]1CC1(C)C)C2)[C@@H](C)OCc1ccccc1 [I-55B]
18,7.00 to 8.00,CNC(=O)[C@@H](NC(=O)[C@@H]1CN(C(=O)c2cnn(Cc3ccccc3)c2)CC12CN(C(=O)[C@H]1CC1(C)C)C2)[C@@H](C)OCC1CCC1 [I-144A]
19,< 5.00,CNC(=O)[C@@H](NC(=O)[C@H]1CN(C(=O)c2cnc(C)s2)CC12CN(C(=O)[C@H]1CC1(C)C)C2)[C@@H](C)OCC1CCCCC1 [I-156B]
20,< 5.00,CNC(=O)[C@@H](NC(=O)[C@H]1CN(C(=O)c2scnc2C(C)(C)C)CC12CN(C(=O)[C@H]1CC1(C)C)C2)[C@@H](C)OCC1CCCCC1 [I-231B]
21,5.00 to 6.00,CNC(=O)[C@@H](NC(=O)[C@@H]1CN(C(=O)c2cnn(Cc3ccccc3)c2)CC12CN(C(=O)C(C)(C)C#N)C2)[C@@H](C)OCc1ccccc1 [I-76A]
22,7.00 to 8.00,CNC(=O)[C@@H](NC(=O)[C@@H]1CN(C(=O)c2cnc(C)s2)CC12CN(C(=O)[C@H]1CC1(C)C)C2)[C@@H](C)OCC1CCCCC1 [I-156A]
23,7.00 to 8.00,Cc1nc(C)c(C(=O)N2C[C@@H](C(=O)N[C@H](C(=O)N3CCC(OC(F)(F)F)CC3)[C@@H](C)OCC34CCC(CC3)OC4)C3(C2)CN(C(=O)[C@H]2CC2(C)C)C3)s1 [I-455]
24,≥ 8.00,C[C@@H](OCC1CCC(F)(F)CC1)[C@H](NC(=O)C1CN(C(=O)c2cncs2)CC12CN(C(=O)[C@H]1CC1(C)C)C2)C(=O)N1CCC(OC(F)(F)F)CC1 (stereo partly shown) [I-394]
25,6.00 to 7.00,CNC(=O)[C@H](CSCc1ccccc1)NC(=O)[C@@H]1CN(C(=O)c2cnn(Cc3ccccc3)c2)CC12CN(C(=O)[C@H]1CC1(C)C)C2 [I-225]
26,5.00 to 6.00,CC1(C)C[C@@H]1C(=O)N1CC2(CN(C(=O)c3cnn(Cc4ccccc4)c3)CC2C(=O)NC2CNCCOC2)C1 (stereo partly shown) [I-245]
